Experimental data as given in paper PMC11855827, “High-Throughput Screening of Five Compound Libraries for Anthelmintic Activity and Toxicity Leads to the Discovery of Two Flavonoid Compounds” (International Journal of Molecular Sciences, 2025).
Where “and” joins values, the source holds several entries; their conditions need not be identical. Equal entries are not always repeated.

Test system: C. elegans
Settings: Table S2, C. elegans SS assay, 110 μM, averages of 4 data points

Row | Compound | Percentage of motility inhibition 0 h | Percentage of motility inhibition 24 h
1 | CC(C)=CCC[C@](C)(O[C@@H]1O[C@H](CO[C@@H]2OC[C@H](O[C@@H]3OC[C@@H](O)[C@H](O)[C@H]3O)[C@H](O)[C@H]2O)[C@@H](O)[C@H](O)[C@H]1O)[C@H]1CC[C@]2(C)[C@@H]1[C@H](O)C[C@@H]1[C@@]3(C)CC[C@H](O[C@@H]4O[C@H](CO)[C@@H](O)[C@H](O)[C@H]4O[C@@H]4O[C@H](CO)[C@@H](O)[C@H](O)[C@H]4O)C(C)(C)[C@@H]3CC[C@]12C [Ginsenoside Ra1] | 0% | 0%
2 | COc1ccc2cc3[n+](cc2c1O)CCc1cc2c(cc1-3)OCO2.[Cl-] [Berberrubine (chloride)] | 0% | 0%
3 | COc1cc2c3c(c1O)-c1ccccc1C[C@@H]3N(C)CC2 [Lirinidine] | 0% | 6%
4 | CCCN1C[C@H](C)[C@@H](O)[C@](C)(O)[C@@H](CC)OC(=O)[C@H](C)[C@@H](O[C@H]2C[C@@](C)(OC)[C@@H](O)[C@H](C)O2)[C@H](C)[C@@H](O[C@@H]2O[C@H](C)C[C@H](N(C)C)[C@H]2O)[C@](C)(O)C[C@H]1C [Gamithromycin] | 37% | 44%
5 | CC1=CC[C@@]23C[C@@H]1C(C)(C)[C@@H]2CC[C@H]3C [(-)-Cedrene] | 0% | 17%
6 | CC1(C)C(=O)[C@]2(C)CCC1C2 (single isomer, unassigned; (-)) [(-)-Fenchone] | 26% | 22%
7 | C=C[C@H]1C[N@@]2CC[C@H]1C[C@H]2[C@H](O)c1ccnc2ccc(OC)cc12 [Quinine] |  | 0% and 8% and 1%
8 | O=C(O[C@@H]1Cc2c(O)cc(O)cc2O[C@@H]1c1cc(=O)c(O)c2c(O)c(O)cc([C@H]3Oc4cc(O)cc(O)c4C[C@H]3O)c2c1)c1cc(O)c(O)c(O)c1 [Theaflavin‐3‐gallate] | 8% | 22%
9 | CC(=O)NO [Acetohydroxamic acid] | 13% | 4%
10 | Nc1ccc2cc3ccc(N)cc3nc2c1.Nc1ccc2cc3ccc(N)cc3nc2c1.O=S(=O)(O)O [Proflavine (hemisulfate)] | 7% | 16%
11 | C[C@@H]1O[C@@H](O[C@H]2C(=O)c3c(O)cc(O)cc3O[C@H]2c2ccc(O)c(O)c2)[C@H](O)[C@H](O)[C@H]1O [Neoisoastilbin] | 0% | 0%
12 | (−)-Myrtenal | 21% | 14%
13 | CCN1C[C@]2(COC)CC[C@H](OC)C34C1C([C@H](OC)[C@@H]32)[C@]1(OC(C)=O)[C@@H]2[C@H]4C[C@@](O)([C@@H]2OC(=O)c2ccccc2)[C@@H](OC)[C@@H]1O [3‐Deoxyaconitine] | 9% | 0%
14 | O=C(O)C1=CO[C@@H](O[C@@H]2O[C@H](CO)[C@@H](O)[C@H](O)[C@H]2O)[C@H]2[C@@H]1C=C[C@]2(O)CO [Monotropein] | 0% | 0%
15 | Theaflavin‐3'‐gallate | 9% | 0%
16 | NC(N)=O [Urea] | 10% | 13%

Row | Compound | Percentage of motility inhibition 0 h | Percentage of motility inhibition 24 h
17 | Cl.c1ccc(CC2=NCCN2)cc1 [Tolazoline (hydrochloride)] | 21% | 0%
18 | C[n+]1cc2c3c(ccc2c2ccc4cc5c(cc4c21)OCO5)OCO3.[Cl-] [Sanguinarine (chloride)] |  | 20% and 27%
19 | CC(=O)O[C@H]1CC[C@]2(C)[C@H]3CC=C4[C@@H]5[C@@H](C)[C@H](C)CC[C@]5(C(=O)O)CC[C@@]4(C)[C@]3(C)CC[C@H]2C1(C)C [Ursolic acid acetate] | 24% | 18%
20 | Nc1ccc(S(=O)(=O)[N-]c2nccs2)cc1.[Na+] [Sulfathiazole (sodium)] | 15% | 6%
21 | CC(C)=CCC[C@](C)(O)[C@H]1CC[C@]2(C)[C@@H]1[C@H](O)C[C@@H]1[C@@]3(C)CC[C@H](O[C@@H]4O[C@H](CO)[C@@H](O)[C@H](O)[C@H]4O[C@@H]4O[C@H](CO)[C@@H](O)[C@H](O)[C@H]4O)C(C)(C)[C@@H]3CC[C@]12C [20(S)-Ginsenoside Rg3] | 0% | 0%
22 | CC1(C)S[C@@H]2[C@H](NC(=O)C(C(=O)[O-])c3ccccc3)C(=O)N2[C@H]1C(=O)[O-].[Na+].[Na+] (stereo partly drawn) [Carbenicillin (disodium)] | 27% | 27%
23 | CC1(C)CC[C@]2(C(=O)O[C@@H]3O[C@H](CO)[C@@H](O)[C@H](O)[C@H]3O)[C@H](O)C[C@]3(C)C(=CC[C@@H]4[C@@]5(C)CC[C@H](O[C@@H]6O[C@H](CO)[C@@H](O)[C@H](O)[C@H]6O)C(C)(C)[C@@H]5CC[C@]43C)[C@@H]2C1 [Eclalbasaponin I] | 35% | 35%
24 | Cl.Nc1ncnc2nc[nH]c12 [Adenine (hydrochloride)] | 0% | 0%
25 | Cc1ccc2nc(C)ccc2c1 [2,6‐Dimethylquinoline] | 0% | 6%
26 | CC1(C)OC2CC(=O)OCC23C1CC(=O)C1(C)C2=CC(=O)OC(c4ccoc4)C2(C)CCC13 (stereo not drawn) [Deoxylimonin] | 9% | 50%
27 | C[C@H]1CC[C@]2(C(=O)O)CC[C@]3(C)C(=CC[C@@H]4[C@@]5(C)CC[C@H](O[C@@H]6OC[C@@H](O)[C@H](O)[C@H]6O[C@@H]6O[C@H](CO)[C@@H](O)[C@H](O)[C@H]6O)C(C)(C)[C@@H]5CC[C@]43C)[C@@H]2[C@]1(C)O [Ilexoside D] | 0% | 22%
28 | Rebaudioside B | 6% | 1%
29 | C=C(C)[C@@H]1CC[C@]2(C(=O)O[C@@H]3O[C@H](CO[C@@H]4O[C@H](CO)[C@@H](O[C@@H]5O[C@@H](C)[C@H](O)[C@@H](O)[C@H]5O)[C@H](O)[C@H]4O)[C@@H](O)[C@H](O)[C@H]3O)CC[C@]3(C)[C@H](CC[C@@H]4[C@@]5(C)CC[C@H](O[C@@H]6OC[C@H](O)[C@H](O)[C@H]6O[C@@H]6O[C@@H](C)[C@H](O)[C@@H](O)[C@H]6O)[C@@](C)(CO)[C@@H]5CC[C@]43C)[C@@H]12 [Pulchinenoside C] | 4% | 0%
30 | CO[C@@H]1C=C2[C@@H]3CC(C)(C)CC[C@]3(CO)[C@H](O)C[C@@]2(C)[C@]2(C)CC[C@H]3[C@](C)(CO)[C@@H](O[C@@H]4O[C@H](C)[C@H](O)[C@H](O[C@@H]5O[C@H](CO)[C@@H](O)[C@H](O)[C@H]5O)[C@H]4O)CC[C@]3(C)[C@@H]12 [Saikosaponin B4] | 13% | 36%
31 | COC1=C(C)C(=O)O[C@]12C(=O)C(C)=C1CCCCN3[C@H]([C@@H]4C[C@H](C)C(=O)O4)CC[C@@]132 [Protostemotinine] | 0% | 22%
